The text below walks through data of patent US20110318422A1, “TARGETED ACTIVE AGENT DELIVERY SYSTEM BASED ON CALCIUM PHOSPHATE NANOPARTICLES” (priority 2007, published 2011).

Where “and” joins values, the source holds several entries; their conditions need not be identical. Equal values may be shown once.

The test system of data set [1] is ME-180 tumors. The experiment in a line: Chemoradiotherapy of intradermal ME-180 tumors in mice. It is filed as in vivo, athymic Ncr-nu/nu mice. Particulars: with single 8 Gy radiation; conjugate IT 10 mg/kg, cisplatin IP 7 mg/kg. As for the experimental part: Chemoradiotherapy of ME-180 Tumors with intratumoral calcium phosphate particle/cisplatin conjugate was performed. Primary tumors were initiated on the right flank in seventy athymic Ncr-nu/nu mice, 5-7 weeks old, by intradermal injections of 2.25×10^6 ME-180 cells, a human cervical cancer line. Six treatment groups were established for the study and included an untreated control, 7 mg/kg intraperitoneal (IP) cisplatin, and intratumoral (IT) calcium phosphate particle/cisplatin conjugate at a dose of 10 mg/kg. These three treatment groups were repeated in combination with a single dose of radiation at 8 Gy (Varian 2100 C), for a total of six treatment groups. Mice were entered into treatment groups once the intradermal ME-180 tumors were 100 mm^3±10% in size. A minimum of 5 mice was placed into each group. The conjugate was injected via an 18-gauge needle directly into the intradermal tumor. Tumor length and width were measured daily and the volume determined (Tumor volume=(width)^2×length×0.4). Mouse weight was also recorded daily as weight loss is an indicator of cisplatin side effects. Statistical analysis, a one-way ANOVA and Newman-Kuels Comparison Test, was applied to the tumor volumes on day 15 after treatment.

The subject of data set [2] is A2780cis human ovarian carcinoma cell line. The data set can be described thus: In vitro cytotoxicity, CellTiter96 AQueous One proliferation assay (Example 2). It is filed as cell-based. Particulars: two days exposure, conjugate loading 112 μg/mg, listed as free active agent. As for the experimental part: For in vitro cytotoxicity activity studies, the cisplatin-resistant cell line was used: A2780cis human ovarian carcinoma cell line (Sigma, 93112517) and cultured according to supplier's descriptions. Briefly, cells were cultured in RPMI1640 medium, supplemented with 2 mM Glutamine and 10% Fetal Bovine Serum (FBS) in a humid atmosphere at 37° C. and 5% CO2. Cells were supplemented with 1 μm cisplatin to the culture media every 2-3 passages, post-attachment. […] Three days were necessary to achieve a cisplatin concentration high enough to obtain an IC50 value. […] To confirm that the particle conjugates were diluted evenly across the wells, measurements of the total Pt concentration in all the wells of the active agent master plate were made by AAS after dissolving the conjugate solutions in dilute HCl. […] Absorbance values were converted to IC50 values using the four parameter logistic equation: Y=(Amax-Amin)/1+(x/IC50)^n+Amin Eq. 2 where Y=observed absorbance • Amax=absorbance of control cells • Amin=absorbance of cells in presence of highest agent concentration • x=active agent concentration (μg/ml) • n=slope of curve Samples were analyzed for statistically significant differences using the Student's T-test (P<0.05).

Data set [3] is described as follows: Lymph node accumulation after footpad injection (Pt by graphite furnace AAS). It is filed as in vivo, BALB/c mice. Particulars: 20 μl footpad injection; nodes at 30 min, 1, 4, 7 days. As for the experimental part: Lymph node accumulation studies were conducted using nine BALB/c mice, 5-7 weeks old injected with 20 μl of calcium phosphate particle/cisplatin conjugate (40 mg/ml) in both rear footpads. Six control mice received 20 μl footpad injections of cisplatin solution only. Draining lymph nodes, as determined by lymphazurin injections (popliteal, inguinal, and lumbar) were collected at 30 min, 1 day, 4 day and 7 days and analyzed for Pt content by graphite furnace atomic absorption spectroscopy. Use of calcium phosphate particle/cisplatin conjugate leads to sustained elevated levels of cisplatin in the draining nodes.

For data set [4], the system named is A2780cis human ovarian carcinoma cell line. The experiment in a line: In vitro cytotoxicity, CellTiter96 AQueous One proliferation assay (Example 1). It is filed as cell-based. Particulars: A2780cis cells; sample added to cells; Example 1 particles. The procedure: In one set of in vitro cytotoxicity activity studies, the cisplatin-resistant A2780cis human ovarian carcinoma cell line was used. A2780cis human ovarian carcinoma cell line (Sigma, 93112517) was cultured according to supplier's descriptions. IC50 values (50% inhibitory concentration) were determined with the CellTiter96® AQueous One (Promega) colorimetric proliferation assay. The CellTiter96® AQueous One (Promega) colorimetric proliferation assay was used to determine the IC50 value (50% inhibitory concentration) evaluated from 12 two-fold dilutions of: (a) cisplatin (200 μg cisplatin /mL) in 0.9% saline (free active agent), (b) 1.5 mg of conjugates in 1.75 ml PBS, (c) 1.5 mg of hydroxyapatite in 1.75 ml of cisplatin solution. Control wells containing the hydroxyapatite only were used since the hydroxyapatite interferes with the CellTiter96 assay. Absorbance values from the hydroxyapatite only were subtracted from the conjugate data in order to determine the IC50 values. The cytotoxicity assay was conducted as follows: twenty-four hours after seeding 2000 A2780cis cells in […] of media on 96 well plates, […] PBS, or PBS with drug or conjugates was added to the wells.

Take `N.N.[Cl][Pt][Cl]` [cisplatin]: in data set [1], the tumors completely regressed entry is “⅙”. Also, the “IC50, direct addition study” value in data set [2] is 6.297 ± 0.43 µg/mL and 6.3 µg/mL. Further, the “duration of cisplatin levels in the draining popliteal node” value in data set [3] is given as “barely detected after one day”. In addition, the “IC50 (50% inhibitory concentration)” value in data set [4] was 6.07 ± 0.226 µg/mL.
